# Data published in patent US12077503B2, “Substituted cyclic amides and their use as herbicides” (FMC CORPORATION, priority 2015, dated 2024).
# How the values were obtained:
# Assay type in all cases: in vivo
# [1] = test system: wheat (Triticum aestivum); assay: Test A postemergence; details: Triticum aestivum, post-emergence, 240 h
# How it was run: (§1)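 In a loam soil and sand blend, planted seeds got a preemergence directed soil spray, and young plants at the one- to two-leaf stage, 2–10 cm high, got a postemergence application; ~10 d greenhouse hold; injury rated visually, 0 = none, 100 = complete control.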
# [2] = test system: blackgrass (Alopecurus myosuroides); assay: Test A postemergence; details: Alopecurus myosuroides, post-emergence, 240 h
# How it was run: as §1
# [3] = test system: ryegrass, Italian (Italian ryegrass, Lolium multiflorum); assay: Test A postemergence; details: Lolium multiflorum, post-emergence, 240 h
# How it was run: as §1
# [4] = test system: barnyardgrass (Echinochloa crus-galli); assay: Test A postemergence; details: Echinochloa crus-galli, post-emergence, 240 h
# How it was run: as §1
# [5] = test system: ragweed (common ragweed, Ambrosia elatior); assay: Test A postemergence; details: Ambrosia artemisiifolia, post-emergence, 240 h
# How it was run: as §1
# [6] = test system: pigweed (Amaranthus retroflexus); assay: Test A postemergence; details: Amaranthus retroflexus, post-emergence, 240 h
# How it was run: as §1
# corn (Zea mays) = assay: Test A postemergence; details: Zea mays, post-emergence, 240 h
# How it was run: as §1
# Kochia (Kochia scoparia) [7] = assay: Test A postemergence; details: Bassia scoparia, post-emergence, 240 h
# How it was run: as §1
# [8] = test system: giant foxtail (Setaria faberii); assay: Test A postemergence; details: Setaria faberi, post-emergence, 240 h
# How it was run: as §1
# rice (Oryra sativa) = assay: Test B flooded paddy test; details: Oryza sativa, 250 g ai/ha, Flood; 0 to 100 scale where 0 is no effect and 100 is complete control; read-out: Rice plant response rating
# How it was run: (§2)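 2-leaf plants; pots flooded 3 cm over soil; cpd added to paddy water; depth held; greenhouse 13–15 d; visual rating vs controls, 0 = no effect, 100 = complete control.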
# [9] = test system: barnyardgrass (Echinochloa crus-galli); assay: Test B flooded paddy test; details: Echinochloa crus-galli, 250 g ai/ha, Flood; 0 to 100 scale where 0 is no effect and 100 is complete control; read-out: Barnyardgrass plant response rating
# How it was run: as §2
# [10] = test system: sedge, umbrella (small-flower umbrella sedge, Cyperus difformis); assay: Test B flooded paddy test; details: Cyperus difformis, 250 g ai/ha, Flood; 0 to 100 scale where 0 is no effect and 100 is complete control; read-out: Sedge, Umbrella plant response rating
# How it was run: as §2
# [11] = test system: ducksalad (Heteranthera limosa); assay: Test B flooded paddy test; details: Heteranthera limosa, 250 g ai/ha, Flood; 0 to 100 scale where 0 is no effect and 100 is complete control; read-out: Ducksalad plant response rating
# How it was run: as §2
# [12] = test system: ryegrass, Italian (Italian ryegrass, Lolium multiflorum); assay: Test A preemergence; details: Lolium multiflorum, pre-emergence, 240 h, 0 to 100 scale where 0 is no effect and 100 is complete control, read-out: Ryegrass, Italian plant response rating
# How it was run: as §1
# [13] = test system: barnyardgrass (Echinochloa crus-galli); assay: Test A preemergence; details: Echinochloa crus-galli, pre-emergence, 240 h, 0 to 100 scale where 0 is no effect and 100 is complete control, read-out: Barnyardgrass plant response rating
# How it was run: as §1
# [14] = test system: ragweed (common ragweed, Ambrosia elatior); assay: Test A preemergence; details: Ambrosia artemisiifolia, pre-emergence, 240 h, 0 to 100 scale where 0 is no effect and 100 is complete control, read-out: Ragweed plant response rating
# How it was run: as §1
# [15] = test system: pigweed (Amaranthus retroflexus); assay: Test A preemergence; details: Amaranthus retroflexus, pre-emergence, 240 h, 0 to 100 scale where 0 is no effect and 100 is complete control, read-out: Pigweed plant response rating
# Kochia (Kochia scoparia) [16] = assay: Test A preemergence; details: Bassia scoparia, pre-emergence, 240 h, 0 to 100 scale where 0 is no effect and 100 is complete control, read-out: Kochia plant response rating
# How it was run: as §1
# [17] = test system: giant foxtail (Setaria faberii); assay: Test A preemergence; details: Setaria faberi, pre-emergence, 240 h, 0 to 100 scale where 0 is no effect and 100 is complete control, read-out: Foxtail, Giant plant response rating
# How it was run: as §1
# [18] = 125 g ai/ha, preemergence, approx. 10 d
compound,measurement,setting,value
CC(C)Oc1cc([C@H]2CN(C)C(=O)[C@@H]2C(=O)Nc2ccccc2F)ccc1F [Compound 1074],plant injury at 125 g/ha,"[1]; 125 g ai/ha, postemergence, visual injury on 0 to 100 scale (0 no effect, 100 complete control), approx. 10 d, read-out: Wheat plant response rating",40%
same,plant injury at 31 g/ha,"[1]; Postemergence, 31 g ai/ha, visual injury after approx. 10 d, 0 to 100 scale, 0 no effect, 100 complete control, read-out: Plant response rating, Wheat",0%
same,pest or weed control at 125 g/ha,"[2]; 125 g ai/ha, postemergence, visual injury on 0 to 100 scale (0 no effect, 100 complete control), approx. 10 d, read-out: Blackgrass plant response rating",50%
same,pest or weed control at 31 g/ha,"[2]; Postemergence, 31 g ai/ha, visual injury after approx. 10 d, 0 to 100 scale, 0 no effect, 100 complete control, read-out: Plant response rating, Blackgrass",20%
same,pest or weed control at 125 g/ha,"[3]; 125 g ai/ha, postemergence, visual injury on 0 to 100 scale (0 no effect, 100 complete control), approx. 10 d, read-out: Ryegrass, Italian plant response rating",30%
same,pest or weed control at 31 g/ha,"[3]; Postemergence, 31 g ai/ha, visual injury after approx. 10 d, 0 to 100 scale, 0 no effect, 100 complete control, read-out: Plant response rating, Ryegrass, Italian",20%
same,pest or weed control at 125 g/ha,"[4]; 125 g ai/ha, postemergence, visual injury on 0 to 100 scale (0 no effect, 100 complete control), approx. 10 d, read-out: Barnyardgrass plant response rating",90%
same,pest or weed control at 31 g/ha,"[4]; Postemergence, 31 g ai/ha, visual injury after approx. 10 d, 0 to 100 scale, 0 no effect, 100 complete control, read-out: Plant response rating, Barnyardgrass",80%
same,pest or weed control at 125 g/ha,"[5]; 125 g ai/ha, postemergence, visual injury on 0 to 100 scale (0 no effect, 100 complete control), approx. 10 d, read-out: Ragweed plant response rating",0%
same,pest or weed control at 31 g/ha,"[5]; Postemergence, 31 g ai/ha, visual injury after approx. 10 d, 0 to 100 scale, 0 no effect, 100 complete control, read-out: Plant response rating, Ragweed",0%
same,pest or weed control at 125 g/ha,"[6]; 125 g ai/ha, postemergence, visual injury on 0 to 100 scale (0 no effect, 100 complete control), approx. 10 d, read-out: Pigweed plant response rating",0%
same,pest or weed control at 31 g/ha,"[6]; Postemergence, 31 g ai/ha, visual injury after approx. 10 d, 0 to 100 scale, 0 no effect, 100 complete control, read-out: Plant response rating, Pigweed",0%
same,plant injury at 125 g/ha,"corn (Zea mays); 125 g ai/ha, postemergence, visual injury on 0 to 100 scale (0 no effect, 100 complete control), approx. 10 d, read-out: Corn plant response rating",20%
same,"Corn plant response rating (crop injury, 0 = no effect, 100 = complete kill) at 31 g/ha","corn (Zea mays); Postemergence, 31 g ai/ha, visual injury after approx. 10 d, 0 to 100 scale, 0 no effect, 100 complete control",0%
same,pest or weed control at 125 g/ha,"Kochia (Kochia scoparia) [7]; 125 g ai/ha, postemergence, visual injury on 0 to 100 scale (0 no effect, 100 complete control), approx. 10 d, read-out: Kochia plant response rating",20%
same,pest or weed control at 31 g/ha,"Kochia (Kochia scoparia) [7]; Postemergence, 31 g ai/ha, visual injury after approx. 10 d, 0 to 100 scale, 0 no effect, 100 complete control, read-out: Plant response rating, Kochia",0%
same,pest or weed control at 125 g/ha,"[8]; 125 g ai/ha, postemergence, visual injury on 0 to 100 scale (0 no effect, 100 complete control), approx. 10 d, read-out: Foxtail, Giant plant response rating",90%
same,pest or weed control at 31 g/ha,"[8]; Postemergence, 31 g ai/ha, visual injury after approx. 10 d, 0 to 100 scale, 0 no effect, 100 complete control, read-out: Plant response rating, Foxtail, Giant",70%
same,pest or weed control at 250 g/ha,rice (Oryra sativa),35%
same,pest or weed control at 250 g/ha,[9],75%
same,pest or weed control at 250 g/ha,[10],0%
same,pest or weed control at 250 g/ha,[11],100%
same,pest or weed control at 31 g/ha,"[12]; 31 g ai/ha, Preemergence",0%
same,pest or weed control at 125 g/ha,[12]; [18],50%
same,pest or weed control at 31 g/ha,"[13]; 31 g ai/ha, Preemergence",90%
same,pest or weed control at 125 g/ha,[13]; [18],100%
same,pest or weed control at 31 g/ha,"[14]; 31 g ai/ha, Preemergence",0%
same,pest or weed control at 125 g/ha,[14]; [18],10%
same,pest or weed control at 31 g/ha,"[15]; 31 g ai/ha, Preemergence",0%
same,pest or weed control at 125 g/ha,[15]; [18],20%
same,pest or weed control at 31 g/ha,"Kochia (Kochia scoparia) [16]; 31 g ai/ha, Preemergence",0%
same,pest or weed control at 125 g/ha,Kochia (Kochia scoparia) [16]; [18],20%
same,pest or weed control at 31 g/ha,"[17]; 31 g ai/ha, Preemergence",100%
same,pest or weed control at 125 g/ha,[17]; [18],100%
